In patent EP1019392B1, “TRICYCLIC AMIDES USEFUL FOR INHIBITION OF G-PROTEIN FUNCTION AND FOR TREATMENT OF PROLIFERATIVE DISEASES” (SCHERING CORPORATION, priority 1995, dated 1997):
pIC50: −log10 of the molar value.

The compounds below were run on Ras-CVLL in COS monkey kidney cells (assay: COS cell assay: geranylgeranylation of Ras-CVLL (Western blot)). Conditions: not given.
Format: cell-based

Row | SMILES | did not block the geranylgeranylation of Ras-CVLL at concentrations up to [µM]
1 | O=C(Cc1cc[n+]([O-])cc1)N1CCC(=C2c3ccc(Cl)c(Br)c3CCc3cc(Br)cnc32)CC1 [Example 2] | > 33

These compounds were tested on Human tumor cells (assay: Soft Agar Assay (anchorage-independent growth)). Conditions: range over 5 tumor cell lines (K ras NIH 3T3, H ras NIH 3T3, HTB 177, A549, HTB 175), read-out: IC50 for each cell line.
Format: cell-based

Row | pIC50 | SMILES
2 | 6.10 to 6.76 | NC(=O)N1CCC(CC(=O)N2CCC(C3c4ncc(Br)cc4CCc4cc(Cl)cc(Cl)c43)CC2)CC1 (single isomer, unassigned) [Example 18]

What follows are compounds tested against T1, geranylgeranyl protein transferase (GGPT) I (Rattus norvegicus, UniProt P53610+Q04631) (assay: In vitro enzyme assay: inhibition of geranylgeranyl protein transferase I (Ras-CVLL as acceptor)). Conditions: Table 2; Ras-CVLL as isoprenoid acceptor.
T1 construct: geranylgeranyl protein transferase (GGPT) I were partially purified from rat brain; from tissue; host or cells: rat brain
Format: biochemical
Excerpt: • 1. In vitro enzyme assays: Inhibition of farnesyl protein transferase and geranylgeranyl protein transferase. Both farnesyl protein transferase (FPT) and geranylgeranyl protein transferase (GGPT) I were partially purified from rat brain by ammonium sulfate fractionation followed by Q-Sepharose (Pharmacia, Inc.) anion exchange chromatography essentially as described by Yokoyama et al (Yokoyama, K., et al., (1991), A protein geranylgeranyltransferase from bovine brain: Implications for protein prenylation specificity, Proc. Natl. Acad. Sci USA 88: 5302-5306, the disclosure of which is incorporated herein by reference thereto). Human farnesyl protein transferase was also expressed in E. coli, using cDNA clones encoding both the a and b subunits. The methods used were similar to those published (Omer, C. et al., (1993), Characterization of recombinant human farnesyl protein transferase: Cloning, expression, farnesyl diphosphate binding, and functional homology with yeast prenyl-protein transferases, Biochemistry 32:5167-5176). Human farnesyl protein transferase was partially-purified from the soluble protein fraction of E. coli as described above. The tricyclic farnesyl protein transferase inhibitors disclosed herein inhibited both human and rat enzyme with similar potencies. Two forms of val^12-Ha-Ras protein were prepared as substrates for these enzymes, differing in their carboxy terminal sequence. One form terminated in cysteine-valine-leucine-serine (Ras-CVLS) the other in cystein-valine-leucine-leucine (Ras-CVLL). Ras-CVLS is a substrate for the farnesyl protein transferase while Ras-CVLL is a substrate for geranylgeranyl protein transferase I. The cDNAs encoding these proteins were constructed so that the proteins contain an amino-terminal extension of 6 histidine residues. Both proteins were expressed in Escherichia coli and purified using metal chelate affinity chromatography. The radiolabelled isoprenyl pyrophosphate substrates, [^3H]farnesyl pyrophosphate and [^3H]geranylgeranyl pyrophosphate, were purchased from DuPont/New England Nuclear. Several methods for measuring farnesyl protein transferase activity have been described (Reiss et al 1990, Cell 62: 81; Schaber et al 1990, J. Biol. Chem. 265: 14701; Manne et al 1990, PNAS 87: 7541; and Barbacid & Manne 1993, U.S. Patent No. 5,185,248). The activity was assayed by measuring the transfer of [^3H]farnesyl from [^3H]farnesyl pyrophosphate to Ras-CVLS using conditions similar to those described by Reiss et al. 1990 (Cell 62: 81) The reaction mixture contained 40 mM Hepes, pH 7.5; 20 mM magnesium chloride; 5 mM dithiothreitol; 0.25 µM [^3H]farnesyl pyrophosphate; […] Q-Sepharose-purified farnesyl protein transferase; the indicated concentration of tricyclic compound or dimethylsulfoxide (DMSO) vehicle control (5% DMSO final); and […] Ras-CVLS in a total volume of […]. The reaction was allowed to proceed for 30 minutes at room temperature and then stopped with 0.5 ml of 4% sodium dodecyl sulfate (SDS) followed by 0.5 ml of cold 30% TCA. Samples were allowed to sit on ice for 45 minutes and precipitated Ras protein was then collected on GF/C filter paper mats using a Brandel cell harvester. Filter mats were washed once with 6% TCA, 2% SDS and radioactivity was measured in a Wallac 1204 Betaplate BS liquid scintillation counter. Percent inhibition was calculated relative to the DMSO vehicle control. The geranylgeranyl protein transferase I assay was essentially identical to the farnesyl protein transferase assay described above, with two exceptions: [^3H]geranylgeranylpyrophosphate replaced farnesyl pyrophosphate as the isoprenoid donor and Ras-CVLL was the protein acceptor. This is similar to the assay reported by Casey et al (Casey, P.J., et al., (1991), Enzymatic modification of proteins with a geranylgeranyl isoprenoid, Proc. Natl. Acad. Sci, USA 88: 8631-8635, the disclosure of which is incorporated herein by reference thereto). • 2. […]

Row | SMILES | pIC50
3 | O=C(Cc1cc[n+]([O-])cc1)N1CCN([C@H]2c3ncc(Br)cc3CCc3cc(Cl)cc(Br)c32)CC1 [Example 11A] | < 4.18
4 | O=C(Cc1cc[n+]([O-])cc1)N1CCC([C@H]2c3ncc(Br)cc3CCc3cc(Cl)cc(Br)c32)CC1 [Example 9] | < 4.23
5 | NC(=O)N1CCC(CC(=O)N2CCC(C3c4ccc(Cl)c(Br)c4CCc4cc(Br)cnc43)CC2)CC1 (single isomer, unassigned) [Example 13] | < 4.20
6 | O=C(Cc1cc[n+]([O-])cc1)N1CCC(=C2c3ccc(Cl)c(Br)c3CCc3cc(Br)cnc32)CC1 [Example 2] | < 3.52
7 | O=C(Cc1cc[n+]([O-])cc1)N1CCC(=C2c3ncc(Br)cc3CCc3cc(Cl)cc(Br)c32)CC1 (racemic) [Example 7] | < 3.52
8 | O=C(Cc1cc[n+]([O-])cc1)N1CCC(C2c3ccc(Cl)c(Br)c3CCc3cc(Br)cnc32)CC1 (single isomer, unassigned) [Example 14A] | < 4.21
9 | O=C(Cc1cc[n+]([O-])cc1)N1CCN([C@H]2c3ccc(Cl)c(Br)c3CCc3cc(Br)cnc32)CC1 [Example 5] | < 4.18
10 | O=C(Cc1cc[n+]([O-])cc1)N1CCN([C@H]2c3ccc(Cl)cc3CCc3cc(Br)cnc32)CC1 [Example 16B] | < 4.12
11 | NC(=O)N1CCC(CC(=O)N2CCC(C3c4ncc(Br)cc4CCc4cc(Cl)cc(Cl)c43)CC2)CC1 (single isomer, unassigned) [Example 18] | < 4.30
12 | O=C(Cc1cc[n+]([O-])cc1)N1CCN([C@@H]2c3ccc(Cl)cc3CCc3cc(Br)cnc32)CC1 [Example 16A] | < 4.42
